Measurements: patent US10344279B2, “Methods for the prevention and the treatment of extracapillary glomerulonephritis” (INSERM (Institut National de la Sante et de la Recherche …, priority 2014, dated 2019)

Columns and labels:
NTS-challenged mice = assay: NTS-induced crescentic glomerulonephritis (RPGN): albuminuria, BUN, crescentic glomeruli; format: in vivo
Protocol: (§1) Podocyte-specific disruption of Stat3 mice were generated by crossing podocin-Cre positive mice (63) with Stat3 floxed mice (64) on C57BL6/J background. Their age-matched littermates with no deletion of Stat3 in any cells are considered as controls. […] Stattic (25 mg/kg) was administered in i.p. way every other day for 10 days. 10 weeks old 129S2/SvPasCr male mice were randomly treated with Stattic and were compared to vehicle-treated (DMSO) littermates.
(§2) The glomerulonephritis was induced on male mice (10-12 weeks of age) by intravenous injection of 15 μL of sheep anti-glomerular basement membrane (GBM) nephrotoxic serum (NTS), which was diluted with 85 μL of sterile phosphate buffer solution. Serum injections were repeated twice (on days 2 and 3) at 6 μL/g of body weight and 7 μL/g respectively.
Urinary creatinine and blood urea nitrogen (BUN) concentrations were analyzed by a standard colorimetric method (Olympus AU400) at the Biochemistry Laboratory of Institut Claude Bernard (IFR2, Faculté de Médecine Paris Diderot). Urinary albumin excretion was measured using a specific ELISA assay for quantitative determination of albumin in mouse urine (CellTrend GmbH).
Kidneys were harvested and fixed in 4% formal. Paraffin-embedded sections (5 μm thick) were stained by Masson's trichrome to evaluate kidney morphology and determine proportion of crescentic glomeruli by a blinded examination on at least 50 glomeruli per section.
(§3) For preventive strategy, antagomiR treatment (12 mg/kg) started 3 days before NTS injection. AntagomiRs (VBC biotech, Vienna) were delivered by retro-orbital i.v. injections under brief anesthesia. Second and third injections were performed on days 1 and 3 with NTS injection. For curative strategy, antagomir were injected on days 4, 5 and 8 after NTS. A scramble antagomiR (Antagomir-Control) was used as control. The sequences were obtained from previously published manuscript (66). In the miR-92 antagomir and control antagomir, the 2′O RNA base are methylated followed by first two bases and last 3 bases are phosphorothiated to increase the stability of antagomir from degradation. In addition, a cholesterol-TEG was added at the 3′ for easy entry of antagomir into the cells. AntagomiR-Control (SEQ ID NO: 7, anti-miR-ctrl): 5′-[…]-3′ and antagomiR-92a (SEQ ID NO: 8, anti-miR-92a): 5′-[…]-3′ as shown to be effective after in vivo administration in kidneys (34, 67). Saline-treated mice were used as control of the scramble antagomiR.

miR-92a = assay: RT-qPCR for miR-92a in transfected primary podocytes; format: cell-based, mouse; conditions: transfection with anti-miR-92a inhibitor (Ambion, 50 nM); normalized to U6
STAT3 = STAT3 protein level in anti-miR-92a transfected podocytes; format: cell-based, mouse; conditions: data not shown
Protocol: Anti-miR-Control#1 was used as control (All from Ambion, 50 nM).

p57 [1] = assay: p57 protein expression in transfected podocytes (western blot, immunofluorescence); format: cell-based, mouse; conditions: anti-miR-92a transfected podocytes
Protocol: (§4) Deparaffinized kidney sections were incubated for 30 minutes at 95° C. in the target retrieval solution (S1699, Dako), then in peroxidase blocking reagent (S2001, Dako), blocked in PBS containing 5% BSA and immunostained against phospho-STAT3 (Tyr705) (Cell Signaling Technology) and phospho-STAT3 (Tyr705) (Millipore), STAT3 (Cell Signaling Technology), podocalyxin (R&D systems), Ki-67 (Abeam) and p57 (Santa Cruz Technology). […] For STAT3 and podocalyxin immunofluorescence, primary antibody incubation was followed by a secondary rabbit anti-goat IgG AF488-conjugated antibody (Invitrogen, 1:400) and a secondary rabbit anti-goat IgG AF594-conjugated antibody (Invitrogen, 1:400) respectively. Podocyte culture cells were immunostained against podocin (ab50339 Abeam), nephrin (ab58968 Abeam), WTI (ab15249 Abeam) or p57 (Santa Cruz Biotechnology). The nuclei were stained using DAPI. Images were obtained with an Axioimager Z1 apotome (Zeiss).
After extraction from glomeruli or podocytes with lysis buffer, proteins were quantified by BCA protein assay kit (iNtRON Biotechnology). Samples were resolved on 4-12% Bis-Tris Criterion XT gels (Bio-Rad) then transferred to a polyvinylidene difloride membrane. […] Protein loading was monitored by using the rat anti-tubulin antibody (Abeam). […] Densitometric analysis with ImageJ software was used for quantification. […]

p57 [2] = assay: p57 immunostaining on kidney sections of NTS-challenged mice; format: in vivo; conditions: NTS-induced decrease; anti-miR-92a administration
Protocol: as §4
For preventive strategy, antagomiR treatment (12 mg/kg) started 3 days before NTS injection. AntagomiRs (VBC biotech, Vienna) were delivered by retro-orbital i.v. injections under brief anesthesia. Second and third injections were performed on days 1 and 3 with NTS injection. For curative strategy, antagomir were injected on days 4, 5 and 8 after NTS. A scramble antagomiR (Antagomir-Control) was used as control. […]

[3] = system: miR-17, miR-18a, miR-19a and miR-20a; assay: RT-qPCR of other miR-17-92 cluster members in isolated glomeruli of NTS-challenged mice; format: in vivo; conditions: antagomiR 12 mg/kg i.v., preventive strategy; 10 days after NTS
Protocol: […] U6 snRNA was used as endogenous control.
as §3

phospho-STAT3 (Tyr705) = assay: Western blot of phospho-STAT3 in glomeruli / kidney cortex of NTS-challenged mice; format: in vivo; conditions: Stattic 25 mg/kg i.p. every other day, started with NTS; 129S2 mice; after 10 days of RPGN; vs vehicle
Protocol: as §1, §2
Mouse kidneys were extracted, minced, and digested in 2 mg/mL collagenase I solution (Gibco) in RPMI 1640 (Invitrogen) at 37° C. for 3 minutes, then filtered through a 70-μm cell strainer and one more through a 40-μm cell strainer. […] Podocyte outgrowth area was quantified at day 4 using ImageJ software.
After extraction from glomeruli or podocytes with lysis buffer, proteins were quantified by BCA protein assay kit (iNtRON Biotechnology). […] Protein loading was monitored by using the rat anti-tubulin antibody (Abeam). […] Densitometric analysis with ImageJ software was used for quantification.

primary podocytes = assay: Wound assay of podocyte migration; format: cell-based, mouse; conditions: Stattic 2 μM, migration within 12 hours
Protocol: After 4 days of primary culture, podocytes were trypsinized then plated into μ-Dish 35 mm high with Culture-Insert (Ibidi). Ibidi's wounding inserts were used for cell migration studies. The coverage of the 500-μm gap was assessed after 12 hours of culture and podocyte migration area was quantified using ImageJ software. The effects of HB-EGF (10 ng/mL, Preprotech) or AG1478 (1 μM, Calbiochem) or anti-mIL-6 monoclonal antibody MP5-20F3 (10 μg/mL, eBiosciences) or Stattic (2 μM, Calbiochem) on differentiated podocytes was applied during 16 hours. After stimulation, podocytes were scrapped in Phosphosafe buffer for protein extraction or in RLT buffer for total RNA extraction.

[4] = antagomiR 12 mg/kg i.v., preventive strategy, 10 days after NTS, vs anti-miR-ctrl or vehicle
[5] = Stattic 25 mg/kg i.p. every other day, day 10 after NTS, 129S2 mice

## anti-miR-92a: 2′O-methylated, end-phosphorothioated antagomir with 3′ cholesterol-TEG, SEQ ID NO: 8, 5′-CAGGCCGGGACAAGUGCAAUA-3′ (VBC biotech) (listed as RNA, chemistry not fully specified)
NTS-challenged mice; [4]
  kidney dysfunction (blood urea nitrogen concentrations): strong decrease
  urinary albumin excretion: strong decrease
NTS-challenged mice; antagomiR 12 mg/kg i.v., preventive strategy, vs NTS+anti-miR-ctrl, P<0.05
  glomerular crescents formation: -44%
NTS-challenged mice; antagomir injection on days 4, 5 and 8 after NTS, read at day 10
  results in curative strategy (miR-92a expression, albuminuria, BUN, p57-positive cells): validated
miR-92a
  miR-92a expression in primary culture of podocytes, change: −71%
STAT3
  STAT3 protein level: did not affect
p57 [1]
  p57 expression: increase
p57 [2]
  p57 expression in glomeruli: rescued
[3]
  levels of others miR of 17-92 cluster in isolated glomeruli: without modify

## O=[N+]([O-])c1ccc2c(c1)S(=O)(=O)C=C2 [Stattic]
phospho-STAT3 (Tyr705)
  STAT3 (Tyr705) phosphorylation in glomeruli: significantly reduced
NTS-challenged mice; [5]
  albuminuria (urinary albumin excretion rate): trend to decreased
  alleviation of the rise in blood urea nitrogen (BUN) concentrations: 50%
  proportion of crescentic glomeruli: reduced
Primary podocytes
  migratory phenotype of podocytes: inhibited
Primary podocytes; listed as STAT3 inhibitor
  migratory phenotype of podocytes: little or no effect
